Measured values taken from patent US20100279863A1, “HERBICIDAL COMPOUNDS BASED ON N-AZINYL-N'-PYRIDYLSULFONYLUREAS” (Bayer CropScience AG, priority 2009, published 2010).

Legend:
Format in all cases: in vivo
[1] = system: Slender meadow foxtail (Alopecurus myosuroides); experiment: Pre-emergence herbicidal activity, ALOMY; conditions: 80 g/ha, scored visually after approximately 3 weeks, 100% = plants have died
From the text: (§1) Seeds of monocotyledonous or dicotyledonous weed plants or crop plants are placed in sandy loam in wood fiber pots and covered with soil. The compounds according to the invention, which are formulated as wettable powders (WP) are then applied to the surface of the soil cover in the form of an aqueous suspension or emulsion with a water application rate of 600 I/ha (converted), with addition of 0.2% wetter. After the treatment, the pots are placed in the greenhouse and maintained under good growth conditions for the test plants. After approximately 3 weeks, the activity of the preparation is scored visually in comparison with untreated controls (herbicidal activity in percent (%): 100% activity=plants have died, 0% activity=like control plants). In the table, the individual crops are abbreviated as follows: • ALOMY: Slender meadow foxtail (Alopecurus myosuroides) • AMARE: Redroot pigweed (Amaranthus retroflexus) • CHEAL: Lambs quarters (Chenopodium album) • DIGSA: Hairy crab grass (Digitaria sanguinalis) • ECHCG: Barnyard grass (Echinochloa crus-galls) • LOLMU: Italian rye grass (Lolium multiflorum) • MATIN: Scentless camomile (Matricaria inodora) • PHBPU: Purple morning glory (Pharbitis/Ipomoea purpurea) • SETVI: Green bristlegrass (Setaria viridis) • SINAL: White mustard (Sinapis alba) • STEME: Chickweed (Stellaria media) • VIOTR: Wild pansy (Viola tricolor)

[2] = system: Redroot pigweed (Amaranthus retroflexus); experiment: Pre-emergence herbicidal activity, AMARE; conditions: 80 g/ha, scored visually after approximately 3 weeks, 100% = plants have died
From the text: as §1

[3] = system: Lambs quarters (Chenopodium album); experiment: Pre-emergence herbicidal activity, CHEAL; conditions: 80 g/ha, scored visually after approximately 3 weeks, 100% = plants have died
From the text: as §1

[4] = system: Hairy crab grass (Digitaria sanguinalis); experiment: Pre-emergence herbicidal activity, DIGSA; conditions: 80 g/ha, scored visually after approximately 3 weeks, 100% = plants have died
From the text: as §1

[5] = system: Barnyard grass (Echinochloa crus-galls); experiment: Pre-emergence herbicidal activity, ECHCG; conditions: 80 g/ha, scored visually after approximately 3 weeks, 100% = plants have died
From the text: as §1

[6] = system: Italian rye grass (Lolium multiflorum); experiment: Pre-emergence herbicidal activity, LOLMU; conditions: 80 g/ha, scored visually after approximately 3 weeks, 100% = plants have died
From the text: as §1

[7] = system: Scentless camomile (Matricaria inodora); experiment: Pre-emergence herbicidal activity, MATIN; conditions: 80 g/ha, scored visually after approximately 3 weeks, 100% = plants have died
From the text: as §1

[8] = system: Purple morning glory (Pharbitis/Ipomoea purpurea); experiment: Pre-emergence herbicidal activity, PHBPU; conditions: 80 g/ha, scored visually after approximately 3 weeks, 100% = plants have died
From the text: as §1

[9] = system: Green bristlegrass (Setaria viridis); experiment: Pre-emergence herbicidal activity, SETVI; conditions: 80 g/ha, scored visually after approximately 3 weeks, 100% = plants have died
From the text: as §1

[10] = system: White mustard (Sinapis alba); experiment: Pre-emergence herbicidal activity, SINAL; conditions: 80 g/ha, scored visually after approximately 3 weeks, 100% = plants have died
From the text: as §1

[11] = system: Chickweed (Stellaria media); experiment: Pre-emergence herbicidal activity, STEME; conditions: 80 g/ha, scored visually after approximately 3 weeks, 100% = plants have died
From the text: as §1

[12] = system: Wild pansy (Viola tricolor); experiment: Pre-emergence herbicidal activity, VIOTR; conditions: 80 g/ha, scored visually after approximately 3 weeks, 100% = plants have died
From the text: as §1

[13] = system: Velvetleaf (Abutilon theophrasti); experiment: Post-emergence herbicidal activity, ABUTH; conditions: one-leaf stage, 80 g/ha, scored visually after approximately 3 weeks, 100% = plants have died
Protocol: (§2) Seeds of monocotyledonous or dicotyledonous weed plants or crop plants are placed in sandy loam in wood fiber pots, covered with soil and grown in the greenhouse under good growth conditions. 2 to 3 weeks after sowing, the test plants are treated in the one-leaf stage. The compounds according to the invention, which are formulated as wettable powders (WP), are then sprayed onto the green plant parts in the form of an aqueous suspension or emulsion with a water application rate of 600 l/ha (converted) with addition of 0.2% of wetter. After the test plants have been left to stand in the greenhouse for approximately 3 weeks under optimal growth conditions, the activity of the preparation is scored visually in comparison with untreated controls (herbicidal activity in percent (%): 100% activity=plants have died, 0% activity=like control plants). In the table, the individual crops are abbreviated as follows: • ABUTH: Velvetleaf (Abutilon theophrasti) • ALOMY: Slender meadow foxtail (Alopecurus myosuroides) • AMARE: Redroot pigweed (Amaranthus retroflexus) • CHEAL: Lambs quarters (Chenopodium album) • ECHCG: Barnyard grass (Echinochloa crus-galls) • LOLMU: Italian rye grass (Lolium multiflorum) • MATIN: Scentless camomile (Matricaria inodora) • PHBPU: Purple morning glory (Pharbitis/Ipomoea purpurea) • POLCO: Black bindweed (Polygonum convolvulus) • SETVI: Green bristlegrass (Setaria viridis) • STEME: Chickweed (Stellaria media) • VIOTR: Wild pansy (Viola tricolor) • XANST: Rough cocklebear (Xanthium strumarium)

[14] = system: Slender meadow foxtail (Alopecurus myosuroides); experiment: Post-emergence herbicidal activity, ALOMY; conditions: one-leaf stage, 80 g/ha, scored visually after approximately 3 weeks, 100% = plants have died
Protocol: as §2

[15] = system: Redroot pigweed (Amaranthus retroflexus); experiment: Post-emergence herbicidal activity, AMARE; conditions: one-leaf stage, 80 g/ha, scored visually after approximately 3 weeks, 100% = plants have died
Protocol: as §2

[16] = system: Lambs quarters (Chenopodium album); experiment: Post-emergence herbicidal activity, CHEAL; conditions: one-leaf stage, 80 g/ha, scored visually after approximately 3 weeks, 100% = plants have died
Protocol: as §2

[17] = system: Barnyard grass (Echinochloa crus-galls); experiment: Post-emergence herbicidal activity, ECHCG; conditions: one-leaf stage, 80 g/ha, scored visually after approximately 3 weeks, 100% = plants have died
Protocol: as §2

[18] = system: Italian rye grass (Lolium multiflorum); experiment: Post-emergence herbicidal activity, LOLMU; conditions: one-leaf stage, 80 g/ha, scored visually after approximately 3 weeks, 100% = plants have died
Protocol: as §2

[19] = system: Scentless camomile (Matricaria inodora); experiment: Post-emergence herbicidal activity, MATIN; conditions: one-leaf stage, 80 g/ha, scored visually after approximately 3 weeks, 100% = plants have died
Protocol: as §2

[20] = system: Purple morning glory (Pharbitis/Ipomoea purpurea); experiment: Post-emergence herbicidal activity, PHBPU; conditions: one-leaf stage, 80 g/ha, scored visually after approximately 3 weeks, 100% = plants have died
Protocol: as §2

[21] = system: Black bindweed (Polygonum convolvulus); experiment: Post-emergence herbicidal activity, POLCO; conditions: one-leaf stage, 80 g/ha, scored visually after approximately 3 weeks, 100% = plants have died
Protocol: as §2

[22] = system: Green bristlegrass (Setaria viridis); experiment: Post-emergence herbicidal activity, SETVI; conditions: one-leaf stage, 80 g/ha, scored visually after approximately 3 weeks, 100% = plants have died
Protocol: as §2

[23] = system: Chickweed (Stellaria media); experiment: Post-emergence herbicidal activity, STEME; conditions: one-leaf stage, 80 g/ha, scored visually after approximately 3 weeks, 100% = plants have died
Protocol: as §2

[24] = system: Wild pansy (Viola tricolor); experiment: Post-emergence herbicidal activity, VIOTR; conditions: one-leaf stage, 80 g/ha, scored visually after approximately 3 weeks, 100% = plants have died
Protocol: as §2

[25] = system: Rough cocklebear (Xanthium strumarium); experiment: Post-emergence herbicidal activity, XANST; conditions: one-leaf stage, 80 g/ha, scored visually after approximately 3 weeks, 100% = plants have died
Protocol: as §2

COc1cc(OC)nc(NC(=O)NS(=O)(=O)c2cnccc2C2=NOCCO2)n1 [Ia-2, 4-(5,6-Dihydro-1,4,2-dioxazin-3-yl)-N-[(4,6-dimethoxypyrimidin-2-yl)carbamoyl]pyridine-3-sulfonamide]
herbicidal activity in percent, ALOMY [1]: 90% | herbicidal activity in percent, AMARE [2]: 90% | herbicidal activity in percent, CHEAL [3]: 100% | herbicidal activity in percent, DIGSA [4]: 80% | herbicidal activity in percent, ECHCG [5]: 90% | herbicidal activity in percent, LOLMU [6]: 90% | herbicidal activity in percent, MATIN [7]: 90% | herbicidal activity in percent, PHBPU [8]: 80% | herbicidal activity in percent, SETVI [9]: 100% | herbicidal activity in percent, SINAL [10]: 100% | herbicidal activity in percent, STEME [11]: 90% | herbicidal activity in percent, VIOTR [12]: 90% | herbicidal activity in percent, ABUTH [13]: 90% | herbicidal activity in percent, ALOMY [14]: 90% | herbicidal activity in percent, AMARE [15]: 100% | herbicidal activity in percent, CHEAL [16]: 80% | herbicidal activity in percent, ECHCG [17]: 90% | herbicidal activity in percent, LOLMU [18]: 95% | herbicidal activity in percent, MATIN [19]: 90% | herbicidal activity in percent, PHBPU [20]: 90% | herbicidal activity in percent, POLCO [21]: 90% | herbicidal activity in percent, SETVI [22]: 95% | herbicidal activity in percent, STEME [23]: 95% | herbicidal activity in percent, VIOTR [24]: 90% | herbicidal activity in percent, XANST [25]: 100%

Cc1cc(C)nc(NC(=O)NS(=O)(=O)c2cnccc2C2=NOCCO2)n1 [Ia-3]
herbicidal activity in percent, ALOMY [1]: 90% | herbicidal activity in percent, AMARE [2]: 85% | herbicidal activity in percent, CHEAL [3]: 90% | herbicidal activity in percent, ECHCG [5]: 80% | herbicidal activity in percent, LOLMU [6]: 85% | herbicidal activity in percent, MATIN [7]: 90% | herbicidal activity in percent, PHBPU [8]: 90% | herbicidal activity in percent, SETVI [9]: 90% | herbicidal activity in percent, SINAL [10]: 90% | herbicidal activity in percent, STEME [11]: 80% | herbicidal activity in percent, VIOTR [12]: 80% | herbicidal activity in percent, ABUTH [13]: 90% | herbicidal activity in percent, ALOMY [14]: 90% | herbicidal activity in percent, AMARE [15]: 95% | herbicidal activity in percent, CHEAL [16]: 80% | herbicidal activity in percent, ECHCG [17]: 95% | herbicidal activity in percent, LOLMU [18]: 85% | herbicidal activity in percent, MATIN [19]: 100% | herbicidal activity in percent, PHBPU [20]: 100% | herbicidal activity in percent, POLCO [21]: 80% | herbicidal activity in percent, SETVI [22]: 80% | herbicidal activity in percent, STEME [23]: 85% | herbicidal activity in percent, VIOTR [24]: 80% | herbicidal activity in percent, XANST [25]: 90%

CN(C)c1nc(NC(=O)NS(=O)(=O)c2cnccc2C2=NOCCO2)nc(OCC(F)(F)F)n1 [Ia-8]
herbicidal activity in percent, AMARE [15]: 80% | herbicidal activity in percent, ECHCG [17]: 80% | herbicidal activity in percent, LOLMU [18]: 80% | herbicidal activity in percent, STEME [23]: 80%

COc1cc(C)nc(NC(=O)NS(=O)(=O)c2cnccc2C2=NOCCO2)n1 [Ia-9]
herbicidal activity in percent, ALOMY [1]: 90% | herbicidal activity in percent, AMARE [2]: 90% | herbicidal activity in percent, CHEAL [3]: 90% | herbicidal activity in percent, DIGSA [4]: 90% | herbicidal activity in percent, ECHCG [5]: 80% | herbicidal activity in percent, LOLMU [6]: 90% | herbicidal activity in percent, MATIN [7]: 90% | herbicidal activity in percent, PHBPU [8]: 90% | herbicidal activity in percent, SETVI [9]: 90% | herbicidal activity in percent, STEME [11]: 90% | herbicidal activity in percent, VIOTR [12]: 90% | herbicidal activity in percent, ABUTH [13]: 90% | herbicidal activity in percent, ALOMY [14]: 90% | herbicidal activity in percent, AMARE [15]: 100% | herbicidal activity in percent, CHEAL [16]: 90% | herbicidal activity in percent, ECHCG [17]: 90% | herbicidal activity in percent, LOLMU [18]: 90% | herbicidal activity in percent, MATIN [19]: 100% | herbicidal activity in percent, PHBPU [20]: 100% | herbicidal activity in percent, POLCO [21]: 90% | herbicidal activity in percent, SETVI [22]: 80% | herbicidal activity in percent, STEME [23]: 90% | herbicidal activity in percent, VIOTR [24]: 90% | herbicidal activity in percent, XANST [25]: 100%

COc1cc(OC)nc(NC(=O)NS(=O)(=O)c2cccnc2C2=NOCCO2)n1 [Ic-1]
herbicidal activity in percent, ALOMY [1]: 90% | herbicidal activity in percent, AMARE [2]: 90% | herbicidal activity in percent, DIGSA [4]: 80% | herbicidal activity in percent, ECHCG [5]: 90% | herbicidal activity in percent, LOLMU [6]: 85% | herbicidal activity in percent, SETVI [9]: 85% | herbicidal activity in percent, SINAL [10]: 90% | herbicidal activity in percent, STEME [11]: 90% | herbicidal activity in percent, VIOTR [12]: 80% | herbicidal activity in percent, ABUTH [13]: 80% | herbicidal activity in percent, ALOMY [14]: 80% | herbicidal activity in percent, AMARE [15]: 95% | herbicidal activity in percent, CHEAL [16]: 80% | herbicidal activity in percent, ECHCG [17]: 90% | herbicidal activity in percent, LOLMU [18]: 85% | herbicidal activity in percent, MATIN [19]: 90% | herbicidal activity in percent, PHBPU [20]: 90% | herbicidal activity in percent, POLCO [21]: 90% | herbicidal activity in percent, SETVI [22]: 85% | herbicidal activity in percent, STEME [23]: 90% | herbicidal activity in percent, VIOTR [24]: 90% | herbicidal activity in percent, XANST [25]: 90%
